Experimental data from the kinase profiling compilation of Christmann-Franck et al. (2016).

Tests used:
Assay in all cases: radiometric filter-binding kinase assay
RPS6KA3 KD1 KD2 (human) = RPS6KA3 KD1 KD2 (human) (UniProt P51812); conditions: ATP 50 µM
PHKG1 or PHKG2 (human) = PHKG1 or PHKG2 (human) (UniProt P15735+Q16816); conditions: ATP 50 µM
CHEK1 (human) = CHEK1 (human) (UniProt O14757); conditions: ATP 20 µM
MAPK8 (human) = MAPK8 (human) (UniProt P45983); conditions: ATP 20 µM
NEK2 (human) = NEK2 (human) (UniProt P51955); conditions: ATP 50 µM
GSK3B (human) = GSK3B (human) (UniProt P49841); conditions: ATP 5 µM
Chain of GSK3B (human) (P49841 whole entry, looked up): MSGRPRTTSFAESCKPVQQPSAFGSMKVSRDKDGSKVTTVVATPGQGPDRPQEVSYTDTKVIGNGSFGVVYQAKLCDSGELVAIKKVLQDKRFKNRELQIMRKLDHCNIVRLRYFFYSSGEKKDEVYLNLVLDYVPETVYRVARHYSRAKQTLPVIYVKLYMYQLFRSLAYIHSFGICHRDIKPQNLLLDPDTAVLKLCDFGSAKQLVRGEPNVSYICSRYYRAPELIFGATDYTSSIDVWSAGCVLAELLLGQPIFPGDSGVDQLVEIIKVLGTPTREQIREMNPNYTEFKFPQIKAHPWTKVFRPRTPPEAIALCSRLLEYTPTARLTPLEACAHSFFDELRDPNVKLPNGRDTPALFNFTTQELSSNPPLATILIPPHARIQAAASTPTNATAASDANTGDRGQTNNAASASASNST

IKBKB (human) = IKBKB (human) (UniProt O14920); conditions: ATP 5 µM
Chain of IKBKB (human) (O14920 whole entry, looked up): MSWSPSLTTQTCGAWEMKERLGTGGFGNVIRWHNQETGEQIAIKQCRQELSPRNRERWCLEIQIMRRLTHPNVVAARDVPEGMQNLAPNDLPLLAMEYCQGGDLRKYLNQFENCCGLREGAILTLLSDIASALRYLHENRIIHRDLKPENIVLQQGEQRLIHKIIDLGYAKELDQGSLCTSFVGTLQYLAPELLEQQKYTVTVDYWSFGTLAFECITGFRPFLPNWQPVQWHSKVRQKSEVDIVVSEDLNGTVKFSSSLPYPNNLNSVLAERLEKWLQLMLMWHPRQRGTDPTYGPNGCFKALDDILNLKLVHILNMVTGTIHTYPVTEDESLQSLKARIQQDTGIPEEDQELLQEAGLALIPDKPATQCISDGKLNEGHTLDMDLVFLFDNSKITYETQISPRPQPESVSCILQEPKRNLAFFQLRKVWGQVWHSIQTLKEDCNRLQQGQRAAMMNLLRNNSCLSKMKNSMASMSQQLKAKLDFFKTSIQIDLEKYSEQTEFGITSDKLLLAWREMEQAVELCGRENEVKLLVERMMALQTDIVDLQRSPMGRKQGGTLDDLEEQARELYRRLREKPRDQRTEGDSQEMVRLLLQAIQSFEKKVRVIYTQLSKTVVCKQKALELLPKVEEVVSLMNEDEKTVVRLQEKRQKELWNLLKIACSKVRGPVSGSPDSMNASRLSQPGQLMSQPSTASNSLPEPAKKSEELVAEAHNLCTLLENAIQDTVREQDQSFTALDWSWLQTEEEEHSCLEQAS

RPS6KA5 KD1 KD2 (human) = RPS6KA5 KD1 KD2 (human) (UniProt O75582); conditions: ATP 20 µM
AKT2 (human) = AKT2 (human) (UniProt P31751); conditions: ATP 50 µM
PIM2 (human) = PIM2 (human) (UniProt Q9P1W9); conditions: ATP 5 µM
MAPK14 (human) = MAPK14 (human) (UniProt Q16539); conditions: ATP 50 µM
DYRK2 (human) = DYRK2 (human) (UniProt Q92630); conditions: ATP 50 µM
[1] = tested on: RPS6KB1 (human), P23443 [T412E]; conditions: ATP 20 µM
LCK (mouse) = conditions: ATP 50 µM, accession and sequence are those of the human protein
CDK2 CCNA2 (human) = CDK2 CCNA2 (human) (UniProt P24941+P20248); conditions: ATP 20 µM
PLK1 (human) = PLK1 (human) (UniProt P53350); conditions: ATP 5 µM
Chain of PLK1 (human) (P53350 whole entry, looked up): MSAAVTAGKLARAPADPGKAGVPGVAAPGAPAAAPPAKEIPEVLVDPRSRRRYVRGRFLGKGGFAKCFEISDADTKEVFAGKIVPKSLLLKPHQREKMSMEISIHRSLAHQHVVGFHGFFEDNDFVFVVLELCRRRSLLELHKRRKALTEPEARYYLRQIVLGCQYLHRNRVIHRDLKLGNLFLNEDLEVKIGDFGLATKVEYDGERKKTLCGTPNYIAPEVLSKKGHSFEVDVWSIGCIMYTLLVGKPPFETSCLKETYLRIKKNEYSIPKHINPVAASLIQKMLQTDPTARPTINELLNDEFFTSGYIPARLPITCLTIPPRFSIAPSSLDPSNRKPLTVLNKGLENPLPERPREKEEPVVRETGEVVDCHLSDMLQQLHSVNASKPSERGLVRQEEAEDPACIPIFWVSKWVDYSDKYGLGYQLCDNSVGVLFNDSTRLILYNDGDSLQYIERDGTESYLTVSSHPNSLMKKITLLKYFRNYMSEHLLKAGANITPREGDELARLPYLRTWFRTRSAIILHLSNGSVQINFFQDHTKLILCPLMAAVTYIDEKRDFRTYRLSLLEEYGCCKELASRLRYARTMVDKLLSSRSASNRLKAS

MKNK2 (human) = MKNK2 (human) (UniProt Q9HBH9); conditions: ATP 50 µM
Chain of MKNK2 (human) (Q9HBH9 whole entry, looked up): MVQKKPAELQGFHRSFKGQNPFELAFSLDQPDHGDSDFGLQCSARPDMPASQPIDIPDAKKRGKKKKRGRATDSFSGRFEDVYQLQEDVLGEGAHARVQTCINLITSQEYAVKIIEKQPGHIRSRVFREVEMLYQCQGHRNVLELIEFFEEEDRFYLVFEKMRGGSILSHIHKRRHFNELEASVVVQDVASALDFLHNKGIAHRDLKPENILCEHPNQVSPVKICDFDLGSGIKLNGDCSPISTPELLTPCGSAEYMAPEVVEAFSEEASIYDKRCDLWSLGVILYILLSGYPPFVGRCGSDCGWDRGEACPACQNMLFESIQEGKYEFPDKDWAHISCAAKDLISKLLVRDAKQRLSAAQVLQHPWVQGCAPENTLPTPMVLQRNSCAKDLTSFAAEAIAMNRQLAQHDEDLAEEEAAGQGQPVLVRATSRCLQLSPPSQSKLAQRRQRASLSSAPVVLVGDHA

MKNK1 (human) = MKNK1 (human) (UniProt Q9BUB5); conditions: ATP 50 µM
[2] = molecular target: PRKACA or PRKACB or PRKACG (human) (UniProt P22694+P22612+P17612); conditions: ATP 20 µM
MAPK9 (human) = MAPK9 (human) (UniProt P45984); conditions: ATP 20 µM
Chain of MAPK9 (human) (P45984 whole entry, looked up): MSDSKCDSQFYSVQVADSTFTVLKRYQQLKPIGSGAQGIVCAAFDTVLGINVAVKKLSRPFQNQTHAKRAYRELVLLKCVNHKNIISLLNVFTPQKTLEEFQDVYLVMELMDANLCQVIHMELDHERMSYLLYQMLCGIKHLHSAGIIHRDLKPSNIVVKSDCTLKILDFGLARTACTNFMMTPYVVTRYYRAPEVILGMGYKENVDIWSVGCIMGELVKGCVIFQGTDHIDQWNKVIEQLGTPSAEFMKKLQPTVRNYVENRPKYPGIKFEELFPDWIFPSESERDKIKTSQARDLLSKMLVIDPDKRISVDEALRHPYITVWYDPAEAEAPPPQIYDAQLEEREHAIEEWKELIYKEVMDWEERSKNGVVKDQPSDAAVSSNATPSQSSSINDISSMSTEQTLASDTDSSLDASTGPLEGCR

SRPK1 (human) = SRPK1 (human) (UniProt Q96SB4); conditions: compound 10.0 µM; ATP 50 µM
RPS6KA1 KD1 KD2 (human) = RPS6KA1 KD1 KD2 (human) (UniProt Q15418); conditions: ATP 50 µM
Chain of RPS6KA1 KD1 KD2 (human) (Q15418 whole entry, looked up): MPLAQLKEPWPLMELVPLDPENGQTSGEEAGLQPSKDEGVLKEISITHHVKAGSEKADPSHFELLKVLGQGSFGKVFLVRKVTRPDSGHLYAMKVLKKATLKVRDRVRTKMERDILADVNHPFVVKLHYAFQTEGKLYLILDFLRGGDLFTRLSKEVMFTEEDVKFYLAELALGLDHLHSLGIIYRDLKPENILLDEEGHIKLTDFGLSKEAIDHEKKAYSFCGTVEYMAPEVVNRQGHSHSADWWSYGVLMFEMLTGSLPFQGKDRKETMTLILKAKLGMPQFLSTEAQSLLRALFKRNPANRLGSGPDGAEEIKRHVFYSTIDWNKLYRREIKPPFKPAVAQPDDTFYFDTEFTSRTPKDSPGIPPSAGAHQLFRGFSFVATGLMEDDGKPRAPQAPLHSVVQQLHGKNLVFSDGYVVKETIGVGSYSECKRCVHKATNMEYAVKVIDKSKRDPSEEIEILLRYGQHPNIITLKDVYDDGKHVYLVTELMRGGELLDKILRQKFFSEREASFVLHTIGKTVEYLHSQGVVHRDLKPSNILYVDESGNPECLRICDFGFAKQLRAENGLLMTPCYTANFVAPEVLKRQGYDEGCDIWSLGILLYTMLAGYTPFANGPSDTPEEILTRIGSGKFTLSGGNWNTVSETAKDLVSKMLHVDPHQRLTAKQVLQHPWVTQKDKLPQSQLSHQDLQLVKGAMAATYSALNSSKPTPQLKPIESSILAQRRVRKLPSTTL

ROCK2 (human) = ROCK2 (human) (UniProt O75116); conditions: ATP 20 µM
DYRK3 (human) = DYRK3 (human) (UniProt O43781); conditions: ATP 5 µM
Chain of DYRK3 (human) (O43781 whole entry, looked up): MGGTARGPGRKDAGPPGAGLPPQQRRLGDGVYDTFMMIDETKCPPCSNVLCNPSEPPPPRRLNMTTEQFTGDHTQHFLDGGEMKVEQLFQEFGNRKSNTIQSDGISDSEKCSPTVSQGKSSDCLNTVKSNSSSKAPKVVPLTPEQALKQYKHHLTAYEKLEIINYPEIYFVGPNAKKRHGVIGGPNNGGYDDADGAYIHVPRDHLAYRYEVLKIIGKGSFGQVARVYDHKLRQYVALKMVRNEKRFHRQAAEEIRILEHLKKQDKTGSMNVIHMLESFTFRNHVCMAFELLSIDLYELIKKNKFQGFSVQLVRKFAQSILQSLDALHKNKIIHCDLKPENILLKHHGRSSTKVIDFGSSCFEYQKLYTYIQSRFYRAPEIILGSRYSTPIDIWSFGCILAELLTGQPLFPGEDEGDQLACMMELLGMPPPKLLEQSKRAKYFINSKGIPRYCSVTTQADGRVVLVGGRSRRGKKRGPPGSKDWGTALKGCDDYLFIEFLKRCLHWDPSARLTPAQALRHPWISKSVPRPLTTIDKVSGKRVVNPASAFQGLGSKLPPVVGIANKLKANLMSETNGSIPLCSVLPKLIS

PRKCG (human) = PRKCG (human) (UniProt P05129); conditions: ATP 5 µM
MAPK15 (human) = MAPK15 (human) (UniProt Q8TD08); conditions: ATP 5 µM
Chain of MAPK15 (human) (Q8TD08 whole entry, looked up): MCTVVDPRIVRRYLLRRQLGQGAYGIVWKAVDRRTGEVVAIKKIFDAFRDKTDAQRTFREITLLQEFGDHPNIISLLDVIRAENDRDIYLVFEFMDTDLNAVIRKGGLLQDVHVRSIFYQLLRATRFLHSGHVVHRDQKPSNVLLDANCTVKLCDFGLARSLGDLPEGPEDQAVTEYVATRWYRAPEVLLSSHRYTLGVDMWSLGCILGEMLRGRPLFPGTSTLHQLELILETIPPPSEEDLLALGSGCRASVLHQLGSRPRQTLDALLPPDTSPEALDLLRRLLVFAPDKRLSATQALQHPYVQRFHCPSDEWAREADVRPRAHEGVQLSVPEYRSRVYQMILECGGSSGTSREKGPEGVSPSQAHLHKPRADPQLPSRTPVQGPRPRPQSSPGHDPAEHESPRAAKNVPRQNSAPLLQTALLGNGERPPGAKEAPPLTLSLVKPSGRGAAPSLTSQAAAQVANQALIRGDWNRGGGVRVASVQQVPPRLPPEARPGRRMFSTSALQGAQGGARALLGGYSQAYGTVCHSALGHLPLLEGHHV

MAPK12 (human) = MAPK12 (human) (UniProt P53778); conditions: ATP 5 µM
CaMK1 (human) = CaMK1 (human) (UniProt Q14012); conditions: ATP 50 µM
[3] = tested on: SGK1 (human), O00141 [S422D]; conditions: ATP 20 µM
MAPKAPK5 (human) = MAPKAPK5 (human) (UniProt Q8IW41); conditions: ATP 20 µM
NEK7 (human) = NEK7 (human) (UniProt Q8TDX7); conditions: ATP 20 µM
EEF2K (human) = EEF2K (human) (UniProt O00418); conditions: ATP 5 µM
PIM3 (human) = PIM3 (human) (UniProt Q86V86); conditions: ATP 20 µM
AURKC (human) = AURKC (human) (UniProt Q9UQB9); conditions: ATP 5 µM
BRSK2 (human) = BRSK2 (human) (UniProt Q8IWQ3); conditions: ATP 50 µM
MAP2K1 (human) = MAP2K1 (human) (UniProt Q02750); conditions: ATP 5 µM
MELK (human) = MELK (human) (UniProt Q14680); conditions: ATP 50 µM
PRKAA1 or PRKAA2 (rat) = conditions: compound 0.01 µM; accession and sequence are those of the human protein

Chain of CHEK1 (human) (O14757 whole entry, looked up): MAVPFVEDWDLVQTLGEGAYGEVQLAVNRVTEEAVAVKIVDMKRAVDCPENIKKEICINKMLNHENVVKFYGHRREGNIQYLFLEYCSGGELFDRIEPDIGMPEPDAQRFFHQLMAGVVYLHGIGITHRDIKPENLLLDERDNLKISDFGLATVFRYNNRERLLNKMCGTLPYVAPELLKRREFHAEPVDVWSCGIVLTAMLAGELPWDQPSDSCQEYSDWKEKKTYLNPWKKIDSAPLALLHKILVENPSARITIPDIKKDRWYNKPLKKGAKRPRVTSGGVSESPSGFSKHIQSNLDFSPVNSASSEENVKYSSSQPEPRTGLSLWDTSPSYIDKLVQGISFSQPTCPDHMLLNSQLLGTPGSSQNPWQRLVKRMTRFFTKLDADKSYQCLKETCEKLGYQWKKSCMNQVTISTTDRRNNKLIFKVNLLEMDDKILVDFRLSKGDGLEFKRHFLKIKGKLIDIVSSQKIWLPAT

SMILES: N#CC(=C(\N)Sc1ccccc1N)/C(C#N)=C(/N)Sc1ccccc1N
- residual activity (RPS6KA3 KD1 KD2 (human); compound 10.0 µM): 81%
- residual activity (PHKG1 or PHKG2 (human); compound 10.0 µM): 94%
- residual activity (CHEK1 (human); compound 10.0 µM): 83%
- residual activity (MAPK8 (human); compound 10.0 µM): 90%
- residual activity (NEK2 (human); compound 10.0 µM): 89%
- residual activity (GSK3B (human); compound 10.0 µM): 82%
- residual activity (IKBKB (human); compound 10.0 µM): 118%
- residual activity (RPS6KA5 KD1 KD2 (human); compound 10.0 µM): 85%
- residual activity (AKT2 (human); compound 10.0 µM): 98%
- residual activity (PIM2 (human); compound 10.0 µM): 101%
- residual activity (MAPK14 (human); compound 10.0 µM): 77%
- residual activity (DYRK2 (human); compound 10.0 µM): 84%
- residual activity ([1]; compound 10.0 µM): 93%
- residual activity (LCK (mouse); compound 10.0 µM): 84%
- residual activity (CDK2 CCNA2 (human); compound 10.0 µM): 86%
- residual activity (PLK1 (human); compound 10.0 µM): 92%
- residual activity (MKNK2 (human); compound 10.0 µM): 85%
- residual activity (MKNK1 (human); compound 10.0 µM): 78%
- residual activity ([2]; compound 10.0 µM): 93%
- residual activity (MAPK9 (human); compound 10.0 µM): 73%
- residual activity (SRPK1 (human)): 102%
- residual activity (RPS6KA1 KD1 KD2 (human); compound 10.0 µM): 83%
- residual activity (ROCK2 (human); compound 10.0 µM): 81%
- residual activity (DYRK3 (human); compound 10.0 µM): 77%
- residual activity (PRKCG (human); compound 10.0 µM): 78%
- residual activity (MAPK15 (human); compound 10.0 µM): 67%
- residual activity (MAPK12 (human); compound 10.0 µM): 90%
- residual activity (CaMK1 (human); compound 10.0 µM): 69%
- residual activity ([3]; compound 10.0 µM): 72%
- residual activity (MAPKAPK5 (human); compound 10.0 µM): 92%
- residual activity (NEK7 (human); compound 10.0 µM): 97%
- residual activity (EEF2K (human); compound 10.0 µM): 116%
- residual activity (PIM3 (human); compound 10.0 µM): 63%

SMILES: CC(C)(N)c1ccc(-c2nc3ccccc3nc2-c2ccccc2)cc1
- residual activity (RPS6KA3 KD1 KD2 (human); compound 1.0 µM): 80%
- residual activity (RPS6KA3 KD1 KD2 (human); compound 10.0 µM): 74%
- residual activity (CHEK1 (human); compound 10.0 µM): 85%
- residual activity (NEK2 (human); compound 1.0 µM): 91%
- residual activity (NEK2 (human); compound 10.0 µM): 100%
- residual activity (GSK3B (human); compound 1.0 µM): 89%
- residual activity (IKBKB (human); compound 10.0 µM): 90%
- residual activity (RPS6KA5 KD1 KD2 (human); compound 1.0 µM): 81%
- residual activity (AURKC (human); compound 1.0 µM): 75%
- residual activity (AURKC (human); compound 10.0 µM): 66%
- residual activity (PIM2 (human); compound 1.0 µM): 88%
- residual activity (PIM2 (human); compound 10.0 µM): 89%
- residual activity (DYRK2 (human); compound 1.0 µM): 113%
- residual activity (DYRK2 (human); compound 10.0 µM): 118%
- residual activity ([1]; compound 1.0 µM): 100%
- residual activity ([1]; compound 10.0 µM): 72%
- residual activity (LCK (mouse); compound 1.0 µM): 84%
- residual activity (LCK (mouse); compound 10.0 µM): 65%
- residual activity (BRSK2 (human); compound 1.0 µM): 96%
- residual activity (CDK2 CCNA2 (human); compound 1.0 µM): 97%
- residual activity (PLK1 (human); compound 1.0 µM): 79%
- residual activity (PLK1 (human); compound 10.0 µM): 90%
- residual activity (MKNK2 (human); compound 10.0 µM): 80%
- residual activity (MKNK1 (human); compound 1.0 µM): 77%
- residual activity (MKNK1 (human); compound 10.0 µM): 84%
- residual activity ([2]; compound 1.0 µM): 91%
- residual activity ([2]; compound 10.0 µM): 77%
- residual activity (MAPK9 (human); compound 1.0 µM): 105%
- residual activity (RPS6KA1 KD1 KD2 (human); compound 1.0 µM): 98%
- residual activity (RPS6KA1 KD1 KD2 (human); compound 10.0 µM): 67%
- residual activity (ROCK2 (human); compound 10.0 µM): 92%
- residual activity (DYRK3 (human); compound 1.0 µM): 86%
- residual activity (DYRK3 (human); compound 10.0 µM): 75%
- residual activity (PRKCG (human); compound 1.0 µM): 105%
- residual activity (PRKCG (human); compound 10.0 µM): 96%
- residual activity (MAPK15 (human); compound 10.0 µM): 71%
- residual activity (CaMK1 (human); compound 1.0 µM): 43%
- residual activity (CaMK1 (human); compound 10.0 µM): 3%
- residual activity (MAP2K1 (human); compound 1.0 µM): 91%
- residual activity ([3]; compound 10.0 µM): 82%
- residual activity (MAPKAPK5 (human); compound 1.0 µM): 85%
- residual activity (MAPKAPK5 (human); compound 10.0 µM): 79%
- residual activity (NEK7 (human); compound 1.0 µM): 91%
- residual activity (MELK (human); compound 1.0 µM): 80%
- residual activity (MELK (human); compound 10.0 µM): 68%
- residual activity (EEF2K (human); compound 1.0 µM): 93%
- residual activity (EEF2K (human); compound 10.0 µM): 40%
- residual activity (PIM3 (human); compound 10.0 µM): 60%

SMILES: CN[C@@H]1C[C@@H]2O[C@@](C)([C@@H]1OC)n1c3ccccc3c3c4c(c5c6ccccc6n2c5c31)C(=O)N[C@@H]4O
- residual activity (RPS6KA3 KD1 KD2 (human); compound 0.01 µM): 29%
- residual activity (PHKG1 or PHKG2 (human); compound 0.01 µM): 5%
- residual activity (CHEK1 (human); compound 0.01 µM): 12%
- residual activity (MAPK8 (human); compound 0.01 µM): 79%
- residual activity (NEK2 (human); compound 0.01 µM): 85%
- residual activity (GSK3B (human); compound 0.01 µM): 77%
- residual activity (IKBKB (human); compound 0.01 µM): 86%
- residual activity (RPS6KA5 KD1 KD2 (human); compound 0.01 µM): 68%
- residual activity (AKT2 (human); compound 0.01 µM): 77%
- residual activity (AURKC (human); compound 0.01 µM): 71%
- residual activity (PIM2 (human); compound 0.01 µM): 73%
- residual activity (MAPK14 (human); compound 0.01 µM): 105%
- residual activity (DYRK2 (human); compound 0.01 µM): 92%
- residual activity ([1]; compound 0.01 µM): 96%
- residual activity (LCK (mouse); compound 0.01 µM): 50%
- residual activity (BRSK2 (human); compound 0.01 µM): 27%
- residual activity (PRKAA1 or PRKAA2 (rat)): 9%
- residual activity (PLK1 (human); compound 0.01 µM): 76%
- residual activity (MKNK2 (human); compound 0.01 µM): 103%
- residual activity (MKNK1 (human); compound 0.01 µM): 85%
- residual activity ([2]; compound 0.01 µM): 63%
- residual activity (MAPK9 (human); compound 0.01 µM): 92%
- residual activity (RPS6KA1 KD1 KD2 (human); compound 0.01 µM): 25%
- residual activity (ROCK2 (human); compound 0.01 µM): 86%
- residual activity (DYRK3 (human); compound 0.01 µM): 84%
- residual activity (PRKCG (human); compound 0.01 µM): 78%
- residual activity (MAPK15 (human); compound 0.01 µM): 92%
- residual activity (MAPK12 (human); compound 0.01 µM): 104%
- residual activity (CaMK1 (human); compound 0.01 µM): 86%
- residual activity (MAP2K1 (human); compound 0.01 µM): 75%
- residual activity ([3]; compound 0.01 µM): 83%
- residual activity (MAPKAPK5 (human); compound 0.01 µM): 83%
- residual activity (NEK7 (human); compound 0.01 µM): 99%
- residual activity (MELK (human); compound 0.01 µM): 53%
- residual activity (EEF2K (human); compound 0.01 µM): 105%
- residual activity (PIM3 (human); compound 0.01 µM): 8%
